US10828368B2, “Therapeutic treatments using centhaquin” (MIDWESTERN UNIVERSITY, priority 2009, dated 2020)
“Also recorded” adds a separate entry of the source. Where a name gives a salt, the structure may show the parent alone. Read-outs that look alike come from different tables or passages of the source. Ends that are not written are not given here.

Legend:
[1] = system: urethane anaesthetized rats; assay: Cardiovascular response (MAP, PP, HR) of drugs in urethane anaesthetized rats; type: in vivo, rat; conditions: for decrease in HR after centhaquin in antagonist treated rats, compared to baseline / decrease in MAP after centhaquin in antagonist treated rats, compared to baseline / decrease in PP after centhaquin in antagonist treated rats, compared to baseline / potentiation of centhaquin hypotensive effect compared to vehicle treated rats / potentiation of centhaquin-induced decrease in HR (bradycardia) compared to vehicle treated rats: TAK-044 1 mg/kg or BMS-182874 9 mg/kg + centhaquin 0.15 mg/kg; for maximum decrease in PP after clonidine in antagonist treated rats, compared to baseline / reduction in MAP after clonidine in antagonist treated rats, compared with the baseline: TAK-044 1 mg/kg or BMS-182874 9 mg/kg + clonidine 10 μg/kg; for change in MAP, PP and HR, antagonist alone: TAK-044 1 mg/kg or BMS-182874 9 mg/kg alone; for Bradycardia, Centhaquin, percent change / Decrease in pulse pressure, Centhaquin, percent change / Hypotension, Centhaquin, percent change: centhaquin 0.33 mg/kg [sic], compared to centhaquin response in control rats; for fall in MAP / decrease in PP: compared to baseline
From the text: Rats were anaesthetized with urethane (1.5 g/kg i.p.) and prepared for the determination of hemodynamic parameters (Gulati and Srimal, 1993; Gulati et al., 1997b). The anesthetized rats were shaved and immobilized to prepare for cannulation. A 2-3 cm incision was made above the femoral vein and artery, and the vessels were dissected and cleaned. The left femoral vein was cannulated (PE-50 tubing, Clay Adams, Parsipanny, N.J.) and secured for drug administration. An ultra-miniature Pressure transducer SPR-320 (2F Polyurethane), with a single pressure sensor side mounted at the tip (Millar Instruments, Houston, Tex.), was inserted in the left femoral artery to acquire the hemodynamic signals. Pressure transducer was connected to bridge amplifier (ML221 Bridge Amp; AD Instruments, Mountain View, Calif., USA) with Viking connector (AEC-10C) and the signals were continuously acquired at a sampling rate of 1000 S^−1 using Millar PowerLab 16/30 data acquisition system (AD Instruments, Mountain View, Calif., USA). MAP, HR, and PP were determined and analyzed with LabChart-5.00 software program (Millar Instruments). After the experiment was completed, the animals were euthanized with higher dose of urethane (3 gm/kg).
The animals were allowed to stabilize for at least 20 min following surgical procedures.
In the above studies, all drugs were injected through the left femoral vein and changes in MAP, HR, and PP after clonidine and centhaquin injection were recorded for 1 hour using Millar PowerLab 16/30 data acquisition system.

[2] = Arterial blood gas analysis before and one hour after drug; type: in vivo, rat
From the text: Arterial blood pH, pO2, pCO2, Na^+, K^+, and lactate were monitored prior to and after drug administration. Blood samples were drawn from the arterial cannula using blood gas sampling syringes (Innovative Medical Technologies, Inc. Leawood, Kans.) and analyzed using a GEM Premier 3000 unit (Instrument Laboratory, Lexington, Mass.).
Blood samples were drawn from the arterial cannula using blood gas sampling syringes (Innovative Medical Technologies, Inc. Leawood, Kans.) and analyzed using a GEM Premier 3000 unit (Instrument Laboratory, Lexington, Mass.).

[3] = system: rat abdominal aortic ring; assay: Clonidine response on the abdominal aortic ring; conditions: for EC50: Rattus norvegicus, read-out: ED50 value, aortic ring contraction
Description: The abdominal aorta was isolated and dissected out from urethane (1.5 g·kg^−1 i.p.) anesthetized rats and was transferred to Krebs bicarbonate buffer pH 7.4 (composition in mM, NaCl, 112.0; KCl, 4.7; KH2PO4, 1.2; MgSO4, 1.2; CaCl2, 2.5; NaHCO3, 25.0; glucose, 11.0) with continuous supply of 95% O2 and 5% CO2 at 37±1° C. The tissue was cut into ring segments (3 mm in length) and mounted in organ baths using 10 mm Radnoti glass ring supports. Extra care was taken while cutting and mounting the ring segment to prevent loss of endothelial layer. Tissue was equilibrated for 45 min by applying 2 g of tension with regular buffer change after every 15 min. Vessels were pre-contracted with 100 mM KCl to determine the viability. Clonidine-induced contractions of aortic ring were measured using Radnoti 8 unit tissue bath (Radnoti Glass Technology, Monrovia, Calif.) and the force transducer coupled with a Grass P7D polygraph. The dose response was recorded for 0.25, 0.5, 1, 2, 4, 6, 8, and 10 μM of clonidine with or without ET-1 (4 nM) treatment and ED50 value was calculated. Experiments were performed in Group 1: Vehicle+Clonidine (0.25 to 10 μM); and Group 2: ET-1 (4 nM)+Clonidine (0.25 to 10 μM) using (n=6) rats in each group.

[4] = system: rats; conditions: clonidine given intravenously in cervical sectioned rats; cited from earlier work
[5] = system: α-adrenergic receptors in the hypothalamus and medulla; conditions: chronic administration in rats; with hypotension and bradycardia; cited from earlier work
[6] = system: 5-HT1 receptors in the medulla; conditions: cited from earlier work
[7] = system: α2-adrenergic receptors; conditions: higher for α2; cited from earlier work
[8] = one hour after clonidine 90 μg/kg or centhaquin 0.45 mg/kg
[9] = ET-1 300 ng/kg + prazosin 0.1 mg/kg + centhaquin 0.15 mg/kg
[10] = ET-1 100 ng/kg + clonidine 10 μg/kg, compared to vehicle treated rats receiving clonidine
[11] = ET-1 300 ng/kg + clonidine 10 μg/kg, compared to vehicle treated rats receiving clonidine
[12] = ET-1 900 ng/kg + centhaquin 0.15 mg/kg, compared to vehicle treated rats receiving centhaquin
[13] = ET-1 900 ng/kg + clonidine 10 μg/kg, compared to vehicle treated rats receiving clonidine

## Cc1noc(NS(=O)(=O)c2cccc3c(N(C)C)cccc23)c1C [BMS-182874, (5-Dimethylamino)-N-(3,4-dimethyl-5-isoxazolyl)-1-naphthalene sulfonamide hydrochloride]
[1]; BMS-182874 9 mg/kg versus TAK-044 1 mg/kg, centhaquin 0.15 mg/kg
  potentiation of centhaquin induced decrease in HR, more than that produced by TAK-044 treatment: 18.63%
[1]
  decrease in HR after centhaquin in antagonist treated rats, compared to baseline: 35.72%
  decrease in MAP after centhaquin in antagonist treated rats, compared to baseline: 43.46%
  decrease in PP after centhaquin in antagonist treated rats, compared to baseline: 49.68%
  potentiation of centhaquin hypotensive effect compared to vehicle treated rats: 30.67%
  potentiation of centhaquin-induced decrease in HR (bradycardia) compared to vehicle treated rats: 29.00%
  maximum decrease in PP after clonidine in antagonist treated rats, compared to baseline: 44.97%
  reduction in MAP after clonidine in antagonist treated rats, compared with the baseline: 29.44%
  change in MAP, PP and HR, antagonist alone: no significant change
  Bradycardia, Centhaquin, percent change: (29.00%)
  Decrease in pulse pressure, Centhaquin, percent change: (28.72%)
  Hypotension, Centhaquin, percent change: (30.67%)

## Clc1cccc(Cl)c1NC1=NCCN1 [Clonidine, N-(2,6-dichlorophenyl)-4,5-dihydro-1H-imidazol-2-amine]
[1]; clonidine 10 μg/kg
  decrease in HR: 20.84%
  decrease in PP: 33.81%
[1]; clonidine 10 μg/kg i.v.
  fall in MAP: 24.02%
[1]; clonidine 30 μg/kg
  decrease in HR: 23.18%
  decrease in PP: 36.39%
[1]; clonidine 30 μg/kg i.v.
  fall in MAP: 26.15%
[1]; clonidine 90 μg/kg
  decrease in HR: 23.19%
  decrease in PP: 34.27%
[1]; clonidine 90 μg/kg i.v.
  fall in MAP: 19.48%
[1]; clonidine 10, 30, 90 μg/kg i.v., centhaquin 0.05, 0.15, 0.45 mg/kg i.v.
  dose-response effect on MAP, PP and HR: dose-dependent hypotension and bradycardia; also recorded: dose-dependent fall in mean arterial pressure (MAP), pulse pressure (PP), and a decrease in heart rate (HR)
[2]; before versus one hour after clonidine 90 μg/kg or centhaquin 0.45 mg/kg
  changes in arterial blood pH, pO2, pCO2, Na^+, K^+, lactate and hematocrit: no significant changes
[2]; [8]
  Hct: 50 ± 4%
  K^+: 4.3 ± 0.6 mmol/L
  Na^+: 139 ± 2 mmol/L
  arterial blood pH: 7.28 ± 0.03
  pCO2: 46 ± 4 mmHg
  pO2: 100 ± 14 mmHg
[3]; ET-1 (4 nM) treated aorta
  EC50: 1810 ± 40 nM
[3]; vehicle treated aorta
  EC50: 2640 ± 20 nM
[3]; clonidine 2 μM, ET-1 (4 nM) treated aorta
  percent contraction of aorta: 75.95±1.36%
[3]; clonidine 2 μM, vehicle treated aorta
  percent contraction of aorta: 51.017±1.70%
[3]; clonidine 4 μM, ET-1 treated aorta
  percent contraction of aorta: 96.83±0.54%
[3]; clonidine 4 μM, vehicle treated aorta
  percent contraction of aorta: 80.27±2.48%
[3]; clonidine 0.25-10 μM
  contraction in rat abdominal aortic ring: dose-dependent (0.25-10 μM) contraction
[4]
  effect on blood pressure and heart rate: did not produce any effect
[5]
  effect of chronic administration on α-adrenergic receptors in the hypothalamus and medulla: up-regulation
[6]
  effect of repeated administration on 5-HT1 receptors in the medulla: up-regulation
[7]
  binding affinity for α2-adrenergic receptors relative to α1-adrenoreceptors: approximately 10 fold

## COc1cc2nc(N3CCN(C(=O)c4ccco4)CC3)nc(N)c2cc1OC [Prazosin]
[1]; [9]
  effect of prazosin on changes produced in MAP by centhaquin in ET-1 treated rats: completely (p<0.01) blocked
  effect of prazosin on decrease in HR induced by centhaquin in ET-1 treated rats: significantly (p<0.05) attenuated
  effect of prazosin on decrease in PP induced by centhaquin in ET-1 treated rats: significantly (p<0.001) attenuated
[1]; prazosin 0.1 mg/kg + centhaquin 0.15 mg/kg
  effect of prazosin on changes in MAP and HR by centhaquin in vehicle treated rats: blocked

## ET-1: endogenous 21-residue peptide endothelin isopeptide, used as ET agonist (CSCSSLMDKECVYFCHLDIIW; not fully specified; ends and bridges not checked; UniProt P05305 53-73, looked up)
[1]; ET-1 100 ng/kg + centhaquin 0.15 mg/kg
  decrease in HR produced by centhaquin, ET-1 versus vehicle treated rats: similar
[1]; ET-1 100 ng/kg + clonidine 10 μg/kg
  attenuation of clonidine induced fall in PP: 33.66%
[1]; [10]
  attenuation of clonidine-induced decrease in HR: 18.01%
  attenuation of clonidine-induced fall in MAP: 27.63%
[1]; ET-1 300 ng/kg + centhaquin 0.15 mg/kg
  effect on centhaquin-induced decrease in HR: significantly attenuated
[1]; [11]
  attenuation of clonidine-induced decrease in HR: 21.00%
  attenuation of clonidine-induced decrease in MAP: 27.41%
[1]; [12]
  attenuation of centhaquin-induced decrease in HR (increase in HR compared to untreated rats): 21.44%
  attenuation of centhaquin-induced decrease in MAP (increase in MAP compared to untreated rats): 33.48%
[1]; [13]
  attenuation of clonidine-induced decrease in HR (increase in HR compared to untreated rats): 37.42%
  attenuation of clonidine-induced decrease in MAP (increase in MAP compared to untreated rats): 42.58%
[1]; ET-1 100, 300 and 900 ng/kg
  change in HR compared to baseline, ET-1 alone: no change
  change in MAP compared to baseline, ET-1 alone: fall (p<0.001) followed by significant rise
[1]; ET-1 100, 300 and 900 ng/kg i.v., clonidine 10 μg/kg i.v., dose-dependent manner
  effect of ET-1 treatment on clonidine-induced fall in MAP: significantly attenuated
[1]; ET-1 100, 300 and 900 ng/kg, centhaquin 0.15 mg/kg i.v., dose-dependent manner
  effect of ET-1 treatment on centhaquin-induced fall in MAP: significantly attenuated
[1]; ET-1 100 and 300 ng/kg + centhaquin 0.15 mg/kg
  attenuation of centhaquin-induced decrease in MAP: small statistically insignificant attenuation
[1]; ET-1 300 and 900 ng/kg + clonidine 10 μg/kg
  attenuation of clonidine induced fall in PP: showed attenuation, but did not reach the level of statistical significance
[3]; ET-1 4 nM pretreated aorta
  effect of ET-1 pretreatment on contractile response of clonidine: significantly potentiated

## cyclo [D-α-aspartyl-3-[(4-phenylpiperazin-1-yl) carbonyl]-L-alanyl-L-α-aspartyl-D-2-(2-thienyl)glycyl-L-leu-Cyl-D-tryptOphyljdisodium salt [TAK-044]
[1]
  decrease in HR after centhaquin in antagonist treated rats, compared to baseline: 21.94%
  decrease in MAP after centhaquin in antagonist treated rats, compared to baseline: 32.31%
  decrease in PP after centhaquin in antagonist treated rats, compared to baseline: 46.49%
  potentiation of centhaquin hypotensive effect compared to vehicle treated rats: 16.48%
  potentiation of centhaquin-induced decrease in HR (bradycardia) compared to vehicle treated rats: 12.74%
  maximum decrease in PP after clonidine in antagonist treated rats, compared to baseline: 52.72%
  reduction in MAP after clonidine in antagonist treated rats, compared with the baseline: 36.59%
  change in MAP, PP and HR, antagonist alone: no significant change
  Bradycardia, Centhaquin, percent change: (12.74%)
  Decrease in pulse pressure, Centhaquin, percent change: (23.83%)
  Hypotension, Centhaquin, percent change: (16.48%)
